Test results published in patent US11155616B2, “Drug regulated transgene expression” (Seattle Children's Hospital, priority 2014, dated 2021).

What was measured:
[1] = test system: TamR-tf (HEA3); assay: ZsGreen expression by flow cytometry in Jurkat cells transduced with dual packaged TamR ZsGreen lentivirus (constructs A and B); format: cell-based, human; conditions: 500 nM 4OHT for 24 hours, flow cytometry (FIG. 1)
From the text: An alternative of the TamR-LV system allows for constitutive HEA3 expression and inducible expression of either ZsGreen or chimeric antigen receptors, permitting kinetic analysis and biological effect controlled in an “ON” and “OFF” manner by the presence or absence of tamoxifen. For this, two constructs were used: 1) HEA-3 is driven by the human EF1 a promoter and linked to the constructed truncated EGFR (EGFRt) transmembrane marker protein by a T2A skip-linker sequence and cloned into a third generation epHIV7 self-inactivating lentivirus packaging plasmid (construct A). (See FIGS. 9A, 9B and 9C; SEQ ID NO: 39; Table 1: SEQ ID NO: 8 and SEQ ID NO: 9) and 2) 7xHBD/[…] controls tamoxifen-dependent expression of ZsGreen cloned into pcDNA3.1(−) which was engineered to lack the commercially used CMV promoter (construct B) (See Table 12; SEQ ID NO: 41). ZsGreen1 is a human codon-optimized ZsGreen variant that encodes the brightest commercially available green fluorescent protein. (Available from Clontech).
Jurkat cells were transduced at a MOI of 5 with lentivirus packaging constructs described above in which a dual packaging approach in which each plasmid is co-transfected into 293T cells during lentiviral production. […]

[2] = test system: TamR-tf (HEA3); assay: 4OHT dose response of ZsGreen expression in transduced Jurkat cells; format: cell-based, human; conditions: 4OHT 0 nM-1000 nM, flow cytometry (FIG. 2)
From the text: (§1) Jurkat cells were transduced at a MOI of 5 with lentivirus packaging constructs described above in which a dual packaging approach in which each plasmid is co-transfected into 293T cells during lentiviral production. This construct utilized molar ratio of 1:2 of construct A to construct B. Construct A encodes the chimeric transcription factor HEA3 linked via a ribosomal cleavage sequence, T2A, to the tracking and selection marker EGFRt. Construct B encodes the synthetic, HEA3-responsive promoter, 7xHBD/mE1b which regulates expression of the transgene ZsGreen-DR1, a short half-life green fluorescent reporter gene.
Cells were harvested and were then subjected to treatment with 4OHT with concentrations ranging from 0 nM-1000 nM, as indicated. Samples were harvested, washed, and stained with EGFRt-biotin, followed by strepavidin-APC, and then analyzed by flow cytometry for ZsGreen expression.

[3] = test system: TamR-tf (HEA3); assay: On and off rate kinetics of ZsGreen expression in transduced Jurkat cells (4OHT washout and re-stimulation); format: cell-based, human
From the text: as §1
The population was subjected to 500 nM 4OHT stimulation for 48 hours, and then sorted for ZsGreen+cells utilizing FACS, yielding a >99% ZsGreen+population on immediate post-sort analysis. Cells were subsequently expanded in culture for 3 weeks, and then prepared for kinetic studies. Cells were divided into 3 treatment groups: (1) no 4OHT (2) 200 nM 4OHT (added every 48 hours) (3) 24 hour 200 nM 4OHT, followed by washout 1× in PBS, then culture in 4OHT free media for 14 days, followed by a 24 hour re-stimulation with 200 nm 4OHT, and then washout in 1×PBS. At each time point, samples were harvested and analyzed via flow cytometry for ZsGreen expression. Results are shown in FIG. 3 and are presented as % ZsGreen+.

[4] = test system: TamR-tf (HEA3); assay: Inducible CD19CAR/Her2t expression in Jurkat cells transduced with TamR-CD19CAR LV (flow cytometry and western blot); format: cell-based, human; conditions: construct not including DHFRdm, 500 nM 4OHT (FIG. 6)
From the text: Construction of the vector was accomplished by dual packaging of transfer plasmids housing constructs as described above at a plasmid molar ratio of 1:1. (See FIGS. 6C and 7C) Construct A under the constitutive EF-lalpha promoter encodes TamR-tf (HEA3) linked via a ribosomal cleavage sequence, T2A, to the tracking and selection marker EGFRt. (See FIGS. 9A, 9B and 9C; SEQ ID NO: 39, Table 1: SEQ ID NO: 8 and SEQ ID NO: 9) Construct B contains the 7xHBD/mE1b promoter with downstream transgene cDNA including CD19CAR linked via 2a cleavage sequence to Her2t, a tracking and selection marker. (See Table 12; SEQ ID NO: 41; Table 2 SEQ ID NO: 10; FIG. 11; SEQ ID NO: 44). Another construct was prepared adding an additional selective marker DHFRdm (See FIG. 12; SEQ ID NO: 46).
Human Jurkat cells were transduced at a MOI of 2, then were expanded in culture, and selected for EGFRt+ cells via magnetic bead selection. After further expansion, cells were either treated with vehicle alone (EtOH) or 500 nM 4OHT, and harvested for flow cytometry. Samples were stained with EGFRt-APC antibody and Herceptin-biotin, followed by SA PE. Samples were also prepared for western blot, the primary antibody used is an anti-CD247 mouse mAb which recognizes the intracellular CD3 zeta chain on the CD19CAR (˜48 kDa). The endogenous CD3 zeta migrates at ˜23 kDa.

[5] = test system: TamR-tf (HEA3); assay: ZsGreen expression in primary CD4 central memory cells transduced with constructs A and B; format: cell-based, human; conditions: inducer plus antiCD3/anti-CD28 beads (FIG. 4B)
Experimental: CD4 central memory cells were obtained from peripheral blood by selecting cells through flow cytometry for markers CD4, and CD62L and negative for CD45RO. Cells were cultured with anti-CD3/anti-CD28 beads for 3 days.
as §1, with “After 3 days, CD4 or CD8 central memory” for “Jurkat”
(§2) On day 21 after transduction, cells were enriched for EGFRt, and subsequently expanded with feeder cells, IL2, and IL15. Following expansion, cells were divided into 3 treatment groups, 4OHT alone (A), 4OHT combined with CD3/CD28 bead cotreatment (B) or 4OHT alone for 48 hours, followed by addition of CD3/CD28 beads (C). […] All samples were harvested at indicated time points following 4OHT treatment, stained with EGFRt-biotin antibody, followed by SA-APC, and analyzed for flow cytometry. […]

[6] = test system: TamR-tf (HEA3); assay: ZsGreen expression in primary CD8 central memory cells transduced with constructs A and B; format: cell-based, human; conditions: inducer plus antiCD3/anti-CD28 beads (FIG. 5B)
Experimental: CD8 central memory cells were obtained from peripheral blood by selecting cells through flow cytometry for markers CD8, and CD62L and negative for CD45RO. Cells were cultured with anti-CD3/anti-CD28 beads for 3 days.
as §1, with “After 3 days, CD4 or CD8 central memory” for “Jurkat”
as §2

[7] = test system: TamR-tf (HEA3); assay: Inducible Her2t expression in human CD4 central memory T cells transduced with TamR CD19CAR LV (with DHFRdm); format: cell-based; conditions: 500 nM 4OHT for 24 hours plus antiCD3/antiCD28 beads (FIG. 8)
Experimental: CD4 central memory cells were obtained from peripheral blood by selecting cells through flow cytometry for markers CD4, and CD62L and negative for CD45RO. Cells were cultured anti-CD3/anti-CD28 beads for 3 days. After 3 days, CD4 Central memory cells were transduced at a MOI of 5 with a lentivirus which packages constructs A and B. (FIG. 8B). Construct A encodes the chimeric transcription factor HEA3 linked via a ribosomal cleavage sequence, T2A, to the tracking and selection marker EGFRt. (See FIGS. 9A, 9B and 9C; SEQ ID NO: 39; Table 1; SEQ ID NO: 8 and SEQ ID NO: 9). […] (See Table 12; SEQ ID NO: 41; Table 2 SEQ ID NO: 10; FIG. 11; SEQ ID NO: 44; FIG. 12; SEQ ID NO: 46).
On day 21 after transduction, cells were enriched for EGFRt utilizing magnetic bead selection, and subsequently expanded with irradiated feeder cells, IL2, and IL15. Two weeks after expansion, cells were cryopreserved. In the experiment depicted above, CD4+ CEM cells which were mock transduced, or CD4+TamR CD19CAR LV were thawed, placed in culture with CD3/CD28 beads, IL-2, IL-15. CD4+TamRCD19CAR LV were treated or not with 500 nM 4OHT for 24 hours. All samples were harvested washed, then stained with an EGFRt-APC antibody and Her2t-biotin, followed by SA-PE, and analyzed via flow cytometry.

[8] = test system: TamR-tf (HEA3); assay: Inducible CD19CAR/Her2t expression in Jurkat cells transduced with TamR CD19CAR LV containing DHFRdm (flow cytometry and western blot); format: cell-based, human; conditions: construct including DHFRdm, 500 nM 4OHT (FIG. 7)
Experimental: Construction of TamR CD19CAR LV was done through dual packaging of constructs A and B. Construct A contains HEA3 linked via a ribosomal cleavage sequence, T2A, to the tracking and selection marker EGFRt.
Cells were transduced with TamR CD19CAR LV at a MOI of 1, expanded in culture, selected for EGFRt via magnetic bead selection. Following further expansion cells were treated with […] alone (EtOH) or 500 nM 4OHT, and harvested for flow cytometry, (upper panel). FIG. 7. Samples were stained with EGFRt-APC antibody and Herceptin-biotin, followed by SA-PE. Parental (untransduced Jurkat) is shown for comparison. Samples were also prepared for western blot, the primary antibody used is an anti-CD247 mouse mAb which recognizes the intracellular CD3 zeta chain on the CD19CAR (˜48 kDa). The endogenous CD3 zeta migrates at ˜23 kDa.

| Structure (SMILES) | cells expressing ZsGreen [1] | concentration effective to induce expression of the transgene (ZsGreen) [2] [nM] | ZsGreen expression after 4-OHT washout, % of the max ZsGreen activity ([3]; 200 nM 4OHT then washout, within 5 days (FIG. 3)) | ZsGreen activity after 4-OHT is added back, % max activity ([3]; re-stimulation with 200 nM 4OHT, within 2 days (FIG. 3)) | cells expressing both EGFRt and Her2t [4] | primary transduced CD4 cells expressing ZsGreen [5] | primary transduced CD8 cells expressing ZsGreen [6] | primary cells expressing both EGFRt and Her2t [7] | cells expressing both EGFRt and Her2t [8] |
| --- | --- | --- | --- | --- | --- | --- | --- | --- | --- |
| CC/C(=C(\c1ccc(O)cc1)c1ccc(OCCN(C)C)cc1)c1ccccc1 [4-OHT, 4-hydroxytamoxifen] | about 50% | ≥ 200 | less than 10% | about 100% |  |  |  |  |  |
| CC/C(=C(\c1ccccc1)c1ccc(OCCN(C)C)cc1)c1ccccc1 [tamoxifen, 2-(4-((1Z)-1,2-diphenyl-1-butenyl)phenoxy)-N,N-dimethyl-ethanamine] |  |  |  |  | about 42.6% | About 70% | About 37% | about 14.7% | about 7.5% |
